Reference: patent US12264185B2, “Stabilized BCL9 peptides for treatment of aberrant Wnt signaling” (WntRx Pharmaceuticals Inc., priority 2015, dated 2025)
Values joined by “and” are separate entries in the source; they are usually repeats but may differ in a detail not shown here. Equal values may be shown once. Read-outs that look alike come from different tables or passages of the source. Each block holds one compound with its values, some of them ahead of it. Bridge positions count the residues as written; N and C are the ends. Square brackets hold non-standard residues; d marks the D form. Peptide text beside a SMILES is read from it. 2Nal = N[C@@H](Cc1ccc2ccccc2c1)C(=O)O; R5 = C=CCCC[C@@](C)(N)C(=O)O; S5 = C=CCCC[C@](C)(N)C(=O)O; βAla = NCCC(=O)O

Assays:
Colo320DM cells = assay: cells
Procedure: Colo320DM cells were selected for this assay as the proliferation of this particular cell line is dependent on BCL9 and β-catenin. ICG001, a known Wnt/β-catenin small molecule inhibitor, was used as a positive control. The cell viability at each treatment condition was analyzed using CellTiterGlo luminescent cell viability assay (Promega) according to the manufacturer's protocols.
Following the procedure described in Example 2, the ability of WX-035 to inhibit cell growth was tested in a cell viability assay using Colo320DM cells.

HCT116 cells = type: cell-based; conditions: HCT116 cells, CellTiterGlo
Procedure: The additional polypeptides were tested in a CellTiterGlo luminescent cell viability assay (Promega). ICG001 was used as a positive control in this assay.

Wnt/β-catenin signaling = assay: GeneBLAzer beta-lactamase Wnt transcription reporter assay, LEF/TCF-bla HCT-116 cells; type: cell-based; conditions: for IC50: LEF/TCF-bla HCT-116 cells
Source text: ICG001 was used as a comparison. The GeneBLAzer uses CellSensor™ LEF/TCF-bla HCT-116 cells that contain a beta-lactamase (BLA) reporter gene under the control of the β-catenin/LEF/TCF response element stably integrated into HCT-116 cells, as shown in FIG. 5A. These cells constitutively express beta-lactamase and can be used to detect agonists and antagonists of the Wnt/β-catenin signaling pathway. The GeneBLAzer assay provides a ratiometric reporter response involving a two-color (blue/green) readout of stimulated and unstimulated cells.
LEF/TCF-bla HCT-116 cells were plated in assay medium (Invitrogen) on clear-bottom plates and incubated overnight at 37° C. […] Cells were next incubated with the Wnt agonist, mWnt3a (provided in the GeneBLAzer kit) for 5 hours at 37° C. Substrate mixture (containing LiveBLAzer™ B/G substrate that employs CCF4-AM, a FRET substrate for beta-lactamase) was added to the wells, and the plate was incubated for 2.5 hours at room temperature in the dark. Black-walled, clear-bottom, 384-well plates (Corning Costar) were used with scanning done with a Spectramax M2. Plates were scanned first (Scan 1 in the blue channel) with excitation filter 409/20 nm and emission filter 460/40 nm. Plates were then scanned (Scan 2 in the green channel) with excitation filer 409/20 nm and emission filter 530/30 nm.

CT26 cells = assay: cells; conditions: Mus musculus, CT26, read-out: IC50, CT26 cell growth
Procedure: CT26 cells were grown in F-bottom plates over 5 days. […] CellTiterGlo (Promega) cell viability assay. […] Doxorubicin is a known inhibitor of cell growth and was included as a control.

CT26.WT cells = type: cell-based
Procedure: One of the stabilized polypeptides generated in Example 10 was tested in a cell viability assay and compared against WX-035. WX-037 was selected for this comparison study. The cell viability assay was performed with CT26.WT cells (ATCC), following the procedures described in Example 2. Briefly, 4000 cells per well of each plate were seeded with 50 μL opti-MEM medium. Each polypeptide, WX-035 or WX-037, was diluted with 2% FBS containing opti-MEM medium using 1 μL of 200× concentrated polypeptide in 99 μL of the medium. Each stock solution was diluted for testing a wide range of concentrations. 50 μL of 2× concentrated polypeptide was added to each well of the plate. Three days after the polypeptide addition, the viability of cells was measured using CellTiterGlo assay, according to the manufacturer's protocol.

FIG. 10B = conditions: for MRTINF | hr: in vivo
Procedure: Each data point represents N=2. Mice were administered 5 mg/kg, 10 mg/kg, or 15 mg/kg intravenously, 5 mg/kg intramuscularly, 10 mg/kg intraperitoneally, or 10 mg/kg subcutaneously.

FIG. 9B = assay: FIG. 9B
Source text: Table printed on a drawing sheet, FIG. 9B
First reader's note: Plasma PK parameters derived from the concentration-time curves plotted in FIG. 9A on the same sheet.

[1] = read-out: IC50, Wnt transcription

IC50 (Colo320DM cells; Homo sapiens, COLO 320DM, read-out: IC50, cell viability): 12100 nM
Compound: O=c1[nH]cc(F)c(=O)[nH]1 [5-FU, 5-fluorouracil, reference compound]

IC50 (HCT116 cells; read-out: IC50, cell viability): 2170 nM
IC50 (Wnt/β-catenin signaling; [1]): 1060 nM
Compound: O=C1[C@H](Cc2ccc(O)cc2)N2C(=O)CCN(C(=O)NCc3ccccc3)[C@H]2CN1Cc1cccc2ccccc12 [ICG001, reference compound]
effect on cell viability / cell growth (Colo320DM cells; Colo320DM cells): capable of inducing cell death in a dose dependent manner

IC50 (CT26 cells): > 2000 nM
Compound: C#Cc1cccc(Nc2ncnc3cc(OCCOC)c(OCCOC)cc23)c1 [erlotinib]

IC50 (CT26 cells): 7520 nM
Compound: COc1cccc2c1C(=O)c1c(O)c3c(c(O)c1C2=O)C[C@@](O)(C(=O)CO)C[C@@H]3O[C@H]1C[C@H](N)[C@H](O)[C@H](C)O1 [doxorubicin]

IC50 (CT26.WT cells): > 32000 nM
Compound: CC(=O)N[C@]1(C)CCCC=CCCC[C@@](C)(C(=O)N[C@@H](CC(=O)O)C(=O)N[C@@H](CCCNC(=N)N)C(=O)N[C@@]2(C)CCCC=CCCC[C@@](C)(C(=O)N[C@@H](CC(=O)O)C(=O)N[C@@H](Cc3c[nH]cn3)C(=O)NCCC(=O)NCCC(N)=O)NC(=O)[C@H](CCCNC(=N)N)NC(=O)[C@H](CCC(N)=O)NC(=O)[C@H](CC(=O)O)NC2=O)NC(=O)[C@H](CCC(N)=O)NC(=O)[C@H](CC(=O)O)NC1=O [WX-037, Xaa1DQXaa2DRXaa3DQRXaa4DH] (Ac-[R5]DQ[S5]DR[S5]DQR[S5]DH[βAla][βAla]-NH2; staple 1-4, 7-11)

Compound: CC[C@H](C)[C@@H]1NC(=O)[C@@](C)(NC(=O)[C@H](CCCNC(=N)N)NC(=O)[C@H](CC(C)C)NC(=O)[C@@H](NC(=O)[C@H](CCC(N)=O)NC(=O)[C@H](CC(C)C)NC(C)=O)[C@@H](C)O)CCCC=CCCC[C@@](C)(C(=O)N[C@@H](CC(C)C)C(=O)N[C@@H](Cc2ccc3ccccc3c2)C(N)=O)NC(=O)[C@H](CCCNC(=N)N)NC(=O)[C@H](CCC(N)=O)NC1=O (single isomer, unassigned) [WX-024 15mg/kg, IV]
AUCINF | (FIG. 10B): 260 µg·h/mL
AUClast | (FIG. 10B): 260 µg·h/mL
CL | L/hr/kg (FIG. 10B): 0.0576 L/h/kg
CL | mL/min/kg (FIG. 10B): 0.96 mL/min/kg
VSS | (FIG. 10B): 0.0946 L/kg
MRTINF | hr (FIG. 10B; mouse, iv): 1.64 h

Compound: CC[C@H](C)[C@@H]1NC(=O)[C@@](C)(NC(=O)[C@H](CCCNC(=N)N)NC(=O)[C@H](CC(C)C)NC(=O)[C@@H](NC(=O)[C@H](CCC(N)=O)NC(=O)[C@H](CC(C)C)NC(C)=O)[C@@H](C)O)CCCC=CCCC[C@@](C)(C(=O)N[C@@H](CC(C)C)C(=O)N[C@@H](Cc2ccc3ccccc3c2)C(N)=O)NC(=O)[C@H](CCCNC(=N)N)NC(=O)[C@H](CCC(N)=O)NC1=O (single isomer, unassigned) [WX-024, LQTLRXaa1IQRXaa2L]
T1/2 | hr (FIG. 9B): 2.44 h and 2.59 h and 2.51 h

IC50 (Wnt/β-catenin signaling; Homo sapiens, read-out: IC50, Wnt/β-catenin transcription): > 10000 nM
Compound: Cc1cc(-c2ncc(CC(=O)Nc3ccc(-c4cnccn4)cn3)cc2C)ccn1 [LGK-974, reference compound]

Compound: CC[C@H](C)[C@@H]1NC(=O)[C@@](C)(NC(=O)[C@H](CCCNC(=N)N)NC(=O)[C@H](CC(C)C)NC(=O)[C@@H](NC(=O)[C@H](CCC(N)=O)NC(=O)[C@H](CC(C)C)NC(C)=O)[C@@H](C)O)CCCC=CCCC[C@@](C)(C(=O)N[C@@H](CC(C)C)C(=O)N[C@@H](Cc2ccc3ccccc3c2)C(N)=O)NC(=O)[C@H](CCCNC(=N)N)NC(=O)[C@H](CCC(N)=O)NC1=O (single isomer, unassigned) [WX-024 10mg/kg, IV]
AUCINF | (FIG. 10B): 233 µg·h/mL
AUClast | (FIG. 10B): 233 µg·h/mL
CL | L/hr/kg (FIG. 10B): 0.0428 L/h/kg
CL | mL/min/kg (FIG. 10B): 0.713 mL/min/kg
VSS | (FIG. 10B): 0.0788 L/kg
MRTINF | hr (FIG. 10B; mouse, iv): 1.84 h

Compound: CC[C@H](C)[C@@H]1NC(=O)[C@@](C)(NC(=O)[C@H](CCCNC(=N)N)NC(=O)[C@H](CC(C)C)NC(=O)[C@@H](NC(=O)[C@H](CCC(N)=O)NC(=O)[C@H](CC(C)C)NC(C)=O)[C@@H](C)O)CCCC=CCCC[C@@](C)(C(=O)N[C@@H](CC(C)C)C(=O)N[C@@H](Cc2ccc3ccccc3c2)C(N)=O)NC(=O)[C@H](CCCNC(=N)N)NC(=O)[C@H](CCC(N)=O)NC1=O (single isomer, unassigned) [WX-024 5mg/kg, IV]
AUCINF | (FIG. 10B): 136 µg·h/mL
AUClast | (FIG. 10B): 136 µg·h/mL
CL | L/hr/kg (FIG. 10B): 0.0368 L/h/kg
CL | mL/min/kg (FIG. 10B): 0.613 mL/min/kg
VSS | (FIG. 10B): 0.0693 L/kg
MRT (FIG. 10B; female, Balb/c, mouse, blood, iv): 1.88 h
half-life (FIG. 10B; female, Balb/c, mouse, blood, iv, read-out: TERMINAL t1/2 | hr (converted)): 1.99 h

IC50 (Colo320DM cells): 12400 nM
IC50 (Wnt/β-catenin signaling; [1]): 1580 nM
Compound: CC[C@H](C)[C@@H]1NC(=O)[C@@](C)(NC(=O)[C@H](CCCNC(=N)N)NC(=O)[C@H](CC(C)C)NC(C)=O)CCCC=CCCC[C@@](C)(C(=O)N[C@@H](CC(C)C)C(N)=O)NC(=O)[C@H](CCCNC(=N)N)NC(=O)[C@H](CCC(N)=O)NC1=O [WX-020, LRXaa1IQRXaa2L] (Ac-LR[S5]IQR[S5]L-NH2; staple 3-7)
inhibition of Wnt transcription among domain mapping polypeptides (Wnt/β-catenin signaling; HCT116 cells): most effective polypeptide in inhibiting the Wnt transcription

IC50 (Wnt/β-catenin signaling; [1]): 764 nM
Compound: stapled, Ac N-terminus, C-terminus 2-Nal-β-Ala-β-Ala-NH2 (Ac-LR[S5]IQR[S5]L[2Nal][βAla][βAla]-NH2; staple 3-7; SMILES CC[C@H](C)[C@@H]1NC(=O)[C@@](C)(NC(=O)[C@H](CCCNC(=N)N)NC(=O)[C@H](CC(C)C)NC(C)=O)CCCC=CCCC[C@@](C)(C(=O)N[C@@H](CC(C)C)C(=O)N[C@@H](Cc2ccc3ccccc3c2)C(=O)NCCC(=O)NCCC(N)=O)NC(=O)[C@H](CCCNC(=N)N)NC(=O)[C@H](CCC(N)=O)NC1=O) [WX-021, LRXaa1IQRXaa2L]
inhibition of cell growth (HCT116 cells): particularly effective
